Measured values as given in patent US20160083733A1, “NOVEL TREATMENT OF METABOLIC DISEASES” (UNIVERSITY OF BREMEN, priority 2013, published 2016).
Where a SMILES comes first, the peptide text is derived from it. Where no end group is shown, it is not given here. The star is where a group is joined. Cbz = O=C(OCc1ccccc1)*

Tests used:
[1] = system: MST1; assay: MST1 activation and AKT signalling in INS-1E cells and human islets, western blotting; format: cell-based, rat; conditions: for glucose- and cytokine-induced P-MST1, MST1-cleavage and apoptosis: INS-1E cells, 72 h, GLP1 and insulin 100 nM
Method: Islet purity was greater than 95% as judged by dithizone staining (if this degree of purity was not achieved by routine isolation, islets were handpicked). Islets from MST1^−/− mice and their WT littermates were isolated as described previously (Schulthess et al., Cell. Metab. 9 (2009) 125-139). Pancreata were perifused with a Liberase™ (#05401119001, Roche, Mannheim, Germany) solution according to the manufacturer's instructions and digested at 37° C., followed by washing and handpicking Human islets were cultured in complete CMRL-1066 (Invitrogen) medium at 5.5 mM glucose and mouse islets and INS-1E cells at complete RPMI-1640 medium at 11.1 mM glucose and HEK293 cells were cultured in Dulbecco's modified Eagle's medium (DMEM). All media included with glutamate, 1% penicillin-streptomycin and 10% fetal bovine serum (FBS, all PAA). INS-1E medium was supplemented with 10 mM HEPES, 1 mM sodium pyruvate and 50 μM β-mercaptoethanol. Islets and INS-1E were exposed to complex diabetogenic conditions: 22.2-33.3 mM glucose, 0.5 mM palmitic acid, the mixture of 2 ng/ml recombinant human IL-1β (R&D Systems, Minneapolis, Minn.)+1,000 U/ml recombinant human IFN-γ (PeProTech) for 72 h, 100 μM H2O2 for 6 h, 1 mM streptozotocin (STZ) for 8 h or 1 mM thapsigargin for 6 h (all Sigma).
At the end of the incubation periods, islets and INS1E cells were washed in ice-cold PBS and lysed in lysis buffer containing 20 mM Tris acetate, 0.27 M sucrose, 1 mM EDTA, 1 mM EGTA, 50 mM NaF, 1% Triton X-100, 5 mM sodium pyrophosphate and 10 mM β-glycerophosphate. Prior to use, the lysis buffer was supplemented with Protease- and Phosphatase-inhibitors (Pierce, Rockford, Ill., USA). Protein concentrations were determined with the BCA protein assay (Pierce). Equivalent amounts of protein from each treatment group were run on a NuPAGE 4-12% Bis-Tris gel (Invitrogen) and electrically transferred onto PVDF membranes. […] Membrane was developed using a chemiluminescence assay system (Pierce) and analyzed using DocIT®LS image acquisition 6.6a (UVP BioImaging Systems, Upland, Calif., USA).

[2] = system: PDX1; assay: PDX1 protein level, degradation and ubiquitination in HEK293 cells co-transfected with MST1; format: cell-based, mouse
Excerpt: pCMV-myc-MST1 and kinase-dead (MST1-K59; dnMST1) are described in Yamamoto et al., J. Clin. Invest. 111 (2003), 1463-1474. Mouse pB.RSV.PDX1-GFP is described in Kawamori et al., Diabetes 52 (2003) 2896-2904. pcDNA3 Myr-HA Akt1, HA-Ubiquitin and pCDNA3 Jnk1a1 (apf)(dn-JNK) plasmids were obtained from Addgene (Cambridge, Mass.). Mouse PDX1 mutants (T11, T126, T152, T155, T214 and T231) in pCGIG5 vector were generated by site-directed mutagenesis as described previously (Frogne et al., 7 (2012), e35233). All mutations were verified by sequencing. To make bacterial expression plasmids for PDX1 mutants, the complete mouse PDX1 CDS (wild type and mutants) has been amplified by PCR using a specific set of primers from pCGIG5 plasmids and cloned into a pGEX-6P-1 bacterial expression vector. The rat insulin driven luciferase vector (RIP-Luc) was constructed by subcloning a 700 by fragment containing −660 bp of the rat 2 insulin promoter into a pMCS-Green-Renilla-Luc vector (Thermo Scientific). pCMV-Red firefly Luc vector was obtained from Thermo Scientific.
HEK293 cells were cultured in 10-cm cell culture dishes and transfected with HA-ubiquitin, PDX1 and MST1 expression plasmids for 48 h. For ubiquitination in human islets, 5000 islets per condition were transfected with ubiquitin plasmid. After 24 h, islets were infected with Ad-GFP or Ad-MST1 for 6 h and kept for another 48 h. […] Lysates were immunoprecipitated with PDX1-specific antibody overnight at 4° C. Immunocomplexes were then captured with Protein A Agarose by rotation at 4° C. for 4 h. After extensive washing, immunoprecipitates were boiled in sample buffer and proteins subjected to western blotting with ubiquitin-specific antibody.
HEK293 cells were transfected with PDX1 alone, or together with MST1 expressing-plasmids. Human islets were infected with Ad-GFP (control) or Ad-MST1. At 48 h after post-transfection/infection, cells were treated with 50 μg/ml translation initiation inhibitor cycloheximde (CHX) to the medium at the times indicated and the lysates were subjected to western blotting.

[3] = system: human islets; assay: Glucose stimulated insulin secretion (GSIS) in human islets; format: cell-based; conditions: Ad-MST1 72 h
Method: (§1) For acute insulin release in response to glucose, primary human and mouse islets and INS1 cells were washed and pre-incubated (30 min) in Krebs-Ringer bicarbonate buffer (KRB) containing 2.8 mM glucose and 0.5% BSA. KRB was then replaced by KRB 2.8 mM glucose for 1 h (basal), followed by an additional 1 h in KRB 16.7 mM glucose. Insulin content was extracted with 0.18N HCl in 70% ethanol. Insulin was determined using human and mouse insulin ELISA (ALPCO Diagnostics, Salem, N.H.). Secreted insulin was normalized to insulin content.

[4] = system: INS-1E cells; assay: Glucose stimulated insulin secretion (GSIS) in INS-1E cells; format: cell-based, rat; conditions: Ad-MST1 72 h
Method: as §1

[5] = system: PDX1 target genes; assay: RT-PCR of PDX1 target genes in INS-1E cells; format: cell-based, rat; conditions: INS-1E cells (FIG. 21 d)
Excerpt: (§2) Total RNA was isolated from cultured human islets and INS1 cells using TRIzol (Invitrogen), and RT-PCR performed as described previously (Shu et al., Diabetologica 55 (2012), 3296-307). For analysis, the Applied Biosystems StepOne Real-Time PCR system (Applied Biosystems, CA, USA) with TaqMan® Fast Universal PCR Master Mix for TaqMan assays (Applied Biosystems) was used. TaqMan® Gene Expression Assays were used for pdx1 (Hs00426216_m1), SLC2A2 (Hs01096905_m1), GCK (Hs01564555_m1), insulin (Hs02741908_m1), PPIA (Hs99999904_m1) and tubulin (Hs00362387_m1) for human and PDX1 (Rn00755591_m1), SLC2A2 (Rn00563565_m1), GCK (Rn00688285_m1), INS1 (Rn02121433_g1), […] (Rn01774648_g1), BCL2L11 (Hs01083836_m1), PPIA (Rn00690933_m1) and tuba1a (Rn01532518_g1) for rat.

[6] = system: PDX1 target genes; assay: RT-PCR of PDX1 target genes in human islets; format: cell-based; conditions: human islets (FIG. 15 q)
Excerpt: as §2

[7] = target: T1, MST1 (Homo sapiens, UniProt Q13043); assay: In vitro kinase assay, phosphorylation of PDX1 by recombinant MST1; format: biochemical
T1 construct: purchased Upstate Biotechnology
T1 sequence (Q13043 1-487): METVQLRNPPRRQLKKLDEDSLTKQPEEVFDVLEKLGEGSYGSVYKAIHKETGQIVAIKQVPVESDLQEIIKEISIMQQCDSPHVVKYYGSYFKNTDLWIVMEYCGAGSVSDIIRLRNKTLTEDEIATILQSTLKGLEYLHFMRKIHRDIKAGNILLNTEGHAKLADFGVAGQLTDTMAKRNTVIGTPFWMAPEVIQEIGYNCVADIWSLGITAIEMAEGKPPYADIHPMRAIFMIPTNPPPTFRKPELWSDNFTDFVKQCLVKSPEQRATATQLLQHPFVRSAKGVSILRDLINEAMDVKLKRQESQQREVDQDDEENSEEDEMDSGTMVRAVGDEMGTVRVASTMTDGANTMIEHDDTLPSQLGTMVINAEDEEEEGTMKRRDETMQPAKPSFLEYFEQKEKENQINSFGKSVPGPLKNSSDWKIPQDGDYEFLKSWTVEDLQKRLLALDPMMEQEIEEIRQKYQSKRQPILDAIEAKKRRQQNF
Method: For immunoprecipitation, cells were washed with PBS and lysed in cold buffer containing 20 mM Tris-HCl (pH 7.5), 150 mM NaCl, 0.27 M sucrose, 1 mM EDTA, 1 mM EGTA, 50 mM NaF, 1% NP-40, 5 mM sodium pyrophosphate and 10 mM β-glycerophosphate supplemented with proteinase/phosphatase inhibitors for 30 min on ice. Lysates were centrifuged at 12,000 g for 15 min at 4° C. prior to immunoprecipitation. Immunoprecipitations were carried out with incubating 0.5-1 mg of total lysate with rabbit anti-PDX1 (1:500), rabbit anti-MST1 (1:50), mouse anti-Myc (1:1000) and rabbit anti-GFP (1:1000) antibodies on a rotator at 4° C. overnight. Immunocomplexes were then captured with Protein A Agarose Fast Flow (Millipore) by rotation at 4° C. for 4 h. After five washes with cold lysis buffer, the immunoprecipitates were used for kinase assays or resuspended in sample buffer and separated by NuPAGE 4-12% Bis-Tris gels (Invitrogen).
Purified human active MST1 (Upstate Biotechnology) was incubated with ^32P-ATP (2 μCi, Perkin Elmer Life Sciences), ATP (100 μM) and 1 mM dithiothreitol (DTT) in a kinase buffer containing 40 mM HEPES (pH 7.4), 20 mM MgCl2, 1 mM EDTA and 1 μg of purified recombinant human PDX-1 (Abcam) or bacterially purified GST-PDX1 (WT and mutants) as substrates. After incubation at 30° C. for 30 min, the reaction was stopped by adding loading buffer and proteins were separated on NuPAGE gels and phosphorylation levels visualized either by autoradiography or specific antibody for phospho-PDX1. The total PDX1 was detected with anti-PDX1 antibody.
Expression and induction of recombinant GST proteins were performed as described previously (Tolia et al., Nat. Methods 3 (2006), 55-64). Escherichia coli BL21 cells with various GST-fusion expression plasmids were cultured at 37° C. and expression of recombinant proteins was induced by 0.1 mM final concentration of Isopropyl-β-D-thio-galactoside (IPTG; sigma) for 2.5 h. Cells were lysed using B-PER bacterial protein extraction reagent (Pierce) and purified using Glutathione Spin Columns (Pierce).

[8] = system: PDX1; assay: Luciferase reporter assay of PDX1 transcriptional activity (rat Ins2-Luc) in HEK293 cells; format: cell-based; conditions: HEK293, 48 h
Method: The transcriptional activity of the PDX1 at promoter level was evaluated using rat Ins2-Luc renilla reporter gene HEK293 cells were transfected with Ins2-Luc renilla, pCMV-firefly, PDX1-WT or PDX1-T11A, alone or together with Myc-MST1 expressing plasmids for 48 h. INS-1E cells transfected with Ins2-Luc renilla and pCMV-firefly plasmids and were infected with Ad-GFP or Ad-MST1 for 48 h. Luciferase activity determined using the Renilla-Firefly Luciferase Dual Assay Kit according to the manufacturer's instructions (Pierce). pCMV-firefly was used as transfection control.

For insulin: recombinant human insulin, the “glucose- and cytokine-induced P-MST1, MST1-cleavage and apoptosis” value [1] was “inhibited”.

For z-DEVD-fmk, the “stress-induced MST1 cleavage by diabetic stimuli” value ([1]; human islets and INS-1E cells) was “JNK and caspase-3 were responsible for stress-induced MST1 cleavage”.

With “GLP1: Glucagon like-peptide 1 (Sigma), exogenously added mitogen (HAEGTFTSDVSSYLEGQAAKEFIAWLVKGR; ends and bridges not checked; UniProt P01275 98-127, looked up)” the “glucose- and cytokine-induced P-MST1, MST1-cleavage and apoptosis” value [1] was “inhibited”.

`CC(C)C[C@@H](C=O)NC(=O)[C@H](CC(C)C)NC(=O)[C@H](CC(C)C)NC(=O)OCc1ccccc1` [MG-132, reference compound] (Cbz-Leu-Leu-Leu-aldehyde) was tested, and the “disappearance of PDX1” value ([2]; PDX1 overexpressing HEK293 cells with MST1, MG-132 50 μM for 6 h) was “abolished”.

For “PDX1-T11A: mutant PDX1 with amino acid Thr11 substituted to alanine, inert to phosphorylation by MST1”, the “MST1-induced impairment in GSIS” value [3] was “normalized”, the “MST1-induced impairment in GSIS” value [4] was “normalized” and the “MST1-induced down regulation of PDX1 target genes” value [5] was “restored”. For the same compound, the “MST1-induced down regulation of PDX1 target genes” value [6] was “restored”, the “phosphorylation by recombinant MST1 of PDX1 immunoprecipitated from HEK293 cells” value ([7]; all PDX1 mutants transfected into HEK293) was “markedly decreased” and the “MST1-induced phosphorylation at the Thr11 site and overall Thr-phosphorylation” value ([7]; p-T11 and pan-Threonine antibodies, immunoprecipitated PDX1) was “markedly reduced”. The “threonine phosphorylation of PDX1-GST fusion proteins by MST1” value ([7]; proteins purified from bacteria, pan-phospho threonine antibody) was “exception”, the “MST1-induced rapid degradation of PDX1 in the presence of CHX” value ([2]; 50 μg/ml CHX) was “did not occur” and the “PDX1 levels in presence of MST1” value ([2]; HEK293 cells, 48 h) was “does not decrease”. The PDX1 ubiquitination ([2]; HEK293 cells, HA-ubiquitin, 48 h, MG-132 last 6 h) was “less” and the “Reduction of PDX1 transcriptional activity by MST1” value [8] was “not”.
